Each structure is given as a SMILES string.

Common to all, as to type: functional, cell-based
In one assay the test system is SK-OV-3. In words: In vitro cytotoxic activity against human ovarian carcinoma cell line SK-OV-3 after 72 hr of drug exposure determined by the SRB assay. The note with it: SK-OV-3, 72 h.
The next assay has as its system HCT-15. Kind of assay: In vitro cytotoxic activity against human colon cancer cell line HCT15 after 72 hr of drug exposure determined by the SRB assay. The note with it: HCT-15, 72 h. On the technique in general: The SRB assay estimates cell density from bound dye.
The next assay relates to MDA-MB-468. Kind of assay: In vitro cytotoxic activity against human breast cancer cell line MD-MB-468 after 72 hr of drug exposure determined by the SRB assay. The note with it: MDA-MB-468, 72 h.
The test system of a further assay is T47D. Kind of assay: In vitro cytotoxic activity against human breast cancer cell line T-47D after 72 hr of drug exposure determined by the SRB assay.

On to `Cc1ccc2c(c1)C(=O)c1nccnc1C2=O`, for which the IC50 turned out to be 2200 nM in the assay on SK-OV-3, 120 nM in the assay on HCT-15, 1500 nM in the assay with MDA-MB-468 and 1200 nM in the assay on T47D.
Consider `O=C1c2ccc(CN3CCCCC3)cc2C(=O)c2nccnc21`, for which the IC50 in the assay with SK-OV-3 is 400 nM; in the assay with HCT-15 it was 50 nM; in the assay on MDA-MB-468, 200 nM; in the assay on T47D, 80 nM.
As to `CN1CCN(Cc2ccc3c(c2)C(=O)c2nccnc2C3=O)CC1`, the IC50 in the assay with SK-OV-3 was 10000 nM; in the assay with HCT-15 it was 1200 nM; in the assay on MDA-MB-468, 3000 nM; with T47D, 3000 nM.
On to `O=C1c2ccc(CBr)cc2C(=O)c2nccnc21`, for which the IC50 in the assay with SK-OV-3 stood at 1600 nM; in the assay with HCT-15, 400 nM; in the assay with MDA-MB-468, 300 nM; with T47D, 500 nM.
As to `O=C1c2ccc(CN3CCCC3)cc2C(=O)c2nccnc21`, the IC50 with SK-OV-3 came to 250 nM; in the assay with HCT-15, 100 nM; in the assay on MDA-MB-468, 100 nM; with T47D, 100 nM.
On to `COc1cccc2c1C(=O)c1c(O)c3c(c(O)c1C2=O)C[C@@](O)(C(=O)CO)C[C@@H]3O[C@H]1C[C@H](N)[C@H](O)[C@H](C)O1` [DOXORUBICIN], for which the IC50 in the assay on HCT-15 is 25 nM; in the assay with MDA-MB-468 it was 7 nM; in the assay on T47D, 7 nM.
`CO[C@@]12[C@H](COC(N)=O)C3=C(C(=O)C(C)=C(N)C3=O)N1C[C@@H]1N[C@@H]12` [MITOMYCIN]: the IC50 came out at 180 nM with SK-OV-3, 70 nM with HCT-15, 270 nM with MDA-MB-468 and 400 nM with T47D.
Taken in the same sequence, the figures for `O=C1c2ccc(CN(CCO)CCO)cc2C(=O)c2nccnc21` were 1200 nM, 180 nM, 900 nM and 900 nM.
For `O=C1c2ccc(CN3CCOCC3)cc2C(=O)c2nccnc21`, the IC50 stood at 7000 nM in the assay with SK-OV-3, 1300 nM in the assay with HCT-15, 3200 nM with MDA-MB-468 and 1300 nM in the assay with T47D.
For `CN(C)Cc1ccc2c(c1)C(=O)c1nccnc1C2=O`, the IC50 with SK-OV-3 came out at 220 nM; with HCT-15, 100 nM; with MDA-MB-468, 100 nM; with T47D, 100 nM.

The IC50 is the midpoint of a concentration-inhibition curve. Read a high IC50 as a need for much substance.

The values are drawn from ChEMBL document CHEMBL1137951, “Synthesis and in vitro evaluation of 7-dialkylaminomethylbenzo[g]quinoxaline-5,10-diones” (Bioorg Med Chem Lett, 2004).
